The target in assay [1] is PI3K p110 beta/p85 alpha (Homo sapiens) (UniProt P27986+P42338). The assay can be described thus: Inhibition of human PI3K p110beta/pI3K p85alpha at 1 uM using PIP2 as substrate in presence of biotinylated PIP3 and ATP and measured after 30 mins by HTRF method. It counts as protein-complex assay.
The target in assay [2] is CDK6/cyclin D3 (Homo sapiens, UniProt Q00534). The assay is described as follows: Inhibition of human CDK6/cyclinD3 using Histone H1 as substrate in presence of [gamma-33P]ATP after 40 mins by scintillation counter method. It counts as protein-complex assay.
Assay [3] concerns the target Tyrosine-protein kinase JAK2 (Homo sapiens) (UniProt O60674). The assay is described as follows: Inhibition of human JAK2 using KTFCGTPEYLAPEVRREPRILSEEEQEMFRDFDYIADWC as substrate in presence of [gamma-33P]ATP at 1 uM after 40 mins by scintillation counter method.
The target in assay [4] is T1, Tyrosine-protein kinase JAK3 (Homo sapiens) (UniProt P52333).
T1 sequence (whole entry): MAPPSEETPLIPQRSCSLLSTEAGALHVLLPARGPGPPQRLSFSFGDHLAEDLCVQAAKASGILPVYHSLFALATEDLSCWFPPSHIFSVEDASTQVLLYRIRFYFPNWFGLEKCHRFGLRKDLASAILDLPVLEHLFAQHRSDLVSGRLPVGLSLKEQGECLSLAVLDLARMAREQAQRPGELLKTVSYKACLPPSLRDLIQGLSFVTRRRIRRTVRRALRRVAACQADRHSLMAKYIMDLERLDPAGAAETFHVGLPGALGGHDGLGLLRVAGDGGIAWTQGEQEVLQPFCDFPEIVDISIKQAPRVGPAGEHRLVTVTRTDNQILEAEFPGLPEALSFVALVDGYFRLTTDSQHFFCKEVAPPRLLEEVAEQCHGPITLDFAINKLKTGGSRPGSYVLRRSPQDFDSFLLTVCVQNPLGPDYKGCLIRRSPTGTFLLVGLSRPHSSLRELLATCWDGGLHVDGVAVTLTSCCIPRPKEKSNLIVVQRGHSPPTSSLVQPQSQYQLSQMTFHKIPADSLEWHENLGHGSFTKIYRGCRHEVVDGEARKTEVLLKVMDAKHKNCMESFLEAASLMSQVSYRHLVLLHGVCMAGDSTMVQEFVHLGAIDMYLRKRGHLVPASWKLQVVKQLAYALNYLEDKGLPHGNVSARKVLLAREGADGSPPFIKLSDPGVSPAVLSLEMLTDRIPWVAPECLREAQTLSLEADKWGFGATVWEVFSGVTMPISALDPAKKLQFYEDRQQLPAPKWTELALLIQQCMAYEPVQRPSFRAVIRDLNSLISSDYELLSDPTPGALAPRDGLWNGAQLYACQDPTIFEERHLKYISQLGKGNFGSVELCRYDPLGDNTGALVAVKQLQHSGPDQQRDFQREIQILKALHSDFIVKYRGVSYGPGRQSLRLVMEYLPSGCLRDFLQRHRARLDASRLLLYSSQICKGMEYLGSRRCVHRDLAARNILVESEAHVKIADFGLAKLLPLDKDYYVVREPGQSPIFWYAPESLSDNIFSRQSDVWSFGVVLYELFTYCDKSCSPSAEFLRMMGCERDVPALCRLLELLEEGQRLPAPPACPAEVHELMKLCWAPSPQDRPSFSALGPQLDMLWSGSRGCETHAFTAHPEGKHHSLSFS
The assay is described as follows: Inhibition of human JAK3 using GGEEEEYFELVKKKK as substrate in presence of [gamma-33P]ATP at 1 uM after 40 mins by scintillation counter method.

The target in assay [5] is Dual specificity protein kinase CLK1 (Homo sapiens, UniProt P49759). The assay can be described thus: Inhibition of CLK mediated SF3B1 activation in human SK-MEL-2 cells assessed as MDM2-pre mRNA exon skipping after 4 hrs by luciferase reporter gene assay relative to control. It counts as cell-based. Particulars: read-out: EC50.
Assay [6] has as its target T2, Aurora kinase A (Homo sapiens) (UniProt O14965).
T2 sequence (whole entry): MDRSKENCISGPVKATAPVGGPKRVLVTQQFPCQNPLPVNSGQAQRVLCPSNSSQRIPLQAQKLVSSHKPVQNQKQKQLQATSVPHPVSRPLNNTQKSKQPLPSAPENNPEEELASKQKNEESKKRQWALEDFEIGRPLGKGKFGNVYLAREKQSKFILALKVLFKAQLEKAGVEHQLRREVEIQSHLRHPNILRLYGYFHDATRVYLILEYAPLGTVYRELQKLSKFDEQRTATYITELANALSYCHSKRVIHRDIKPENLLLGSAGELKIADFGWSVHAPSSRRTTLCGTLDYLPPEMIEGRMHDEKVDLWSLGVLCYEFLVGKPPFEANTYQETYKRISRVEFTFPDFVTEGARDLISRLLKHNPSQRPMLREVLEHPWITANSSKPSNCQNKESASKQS
The assay can be described thus: Inhibition of human Aurora-A using Kemptide as substrate in presence of [gamma-33P]ATP at 1 uM after 40 mins by scintillation counter method.

Assay [7] has as its target Serine/threonine-protein kinase PLK1 (Homo sapiens) (UniProt P53350). The assay is described as follows: Inhibition of human Plk1 using casein as substrate in presence of [gamma-33P]ATP at 1 uM after 40 mins by scintillation counter method.
In assay [8] the target is Mitogen-activated protein kinase 8 (Homo sapiens) (UniProt P45983). The assay is described as follows: Inhibition of human JNK1alpha1 using ATF2 as substrate in presence of [gamma-33P]ATP at 1 uM after 40 mins by scintillation counter method.
The target in assay [9] is Receptor-type tyrosine-protein kinase FLT3 (Homo sapiens) (UniProt P36888). The assay is described as follows: Inhibition of human Flt3 using EAIYAAPFAKKK as substrate in presence of [gamma-33P]ATP at 1 uM after 40 mins by scintillation counter method.
Assay [10] has as its target Tyrosine-protein kinase ABL1 (Homo sapiens) (UniProt P00519). The assay is described as follows: Inhibition of human Abl using EAIYAAPFAKK as substrate in presence of [gamma-33P]ATP at 1 uM after 40 mins by scintillation counter method.
The target of assay [11] is Macrophage colony-stimulating factor 1 receptor (Homo sapiens) (UniProt P07333). The assay is described as follows: Inhibition of human Fms using KKKSPGEYVNIEFG as substrate in presence of [gamma-33P]ATP at 1 uM after 40 mins by scintillation counter method.
For assay [12], the target named is PI3-kinase p110-alpha/p85-alpha (Homo sapiens) (UniProt P27986+P42336). The assay can be described thus: Inhibition of human PI3K p110alpha/pI3K p85alpha at 1 uM using PIP2 as substrate in presence of biotinylated PIP3 and ATP and measured after 30 mins by HTRF method. It is filed as protein-complex assay.
Assay [13] addresses Cyclin-dependent kinase 1/cyclin B1 (Homo sapiens, UniProt P06493). The assay can be described thus: Inhibition of human CDK1/cyclinB using Histone H1 as substrate in presence of [gamma-33P]ATP after 40 mins by scintillation counter method. It is filed as protein-complex assay.
In assay [14] the target is CDK4/Cyclin D3 (Homo sapiens, UniProt P11802). The assay can be described thus: Inhibition of human CDK4/cyclinD3 using Histone H1 as substrate in presence of [gamma-33P]ATP after 40 mins by scintillation counter method. It is filed as protein-complex assay.

This is an account of results in ChEMBL document CHEMBL4002601, “A triple exon-skipping luciferase reporter assay identifies a new CLK inhibitor pharmacophore” (Bioorg Med Chem Lett, 2017).

Sequence of Tyrosine-protein kinase JAK2 (Homo sapiens) (O60674 whole entry): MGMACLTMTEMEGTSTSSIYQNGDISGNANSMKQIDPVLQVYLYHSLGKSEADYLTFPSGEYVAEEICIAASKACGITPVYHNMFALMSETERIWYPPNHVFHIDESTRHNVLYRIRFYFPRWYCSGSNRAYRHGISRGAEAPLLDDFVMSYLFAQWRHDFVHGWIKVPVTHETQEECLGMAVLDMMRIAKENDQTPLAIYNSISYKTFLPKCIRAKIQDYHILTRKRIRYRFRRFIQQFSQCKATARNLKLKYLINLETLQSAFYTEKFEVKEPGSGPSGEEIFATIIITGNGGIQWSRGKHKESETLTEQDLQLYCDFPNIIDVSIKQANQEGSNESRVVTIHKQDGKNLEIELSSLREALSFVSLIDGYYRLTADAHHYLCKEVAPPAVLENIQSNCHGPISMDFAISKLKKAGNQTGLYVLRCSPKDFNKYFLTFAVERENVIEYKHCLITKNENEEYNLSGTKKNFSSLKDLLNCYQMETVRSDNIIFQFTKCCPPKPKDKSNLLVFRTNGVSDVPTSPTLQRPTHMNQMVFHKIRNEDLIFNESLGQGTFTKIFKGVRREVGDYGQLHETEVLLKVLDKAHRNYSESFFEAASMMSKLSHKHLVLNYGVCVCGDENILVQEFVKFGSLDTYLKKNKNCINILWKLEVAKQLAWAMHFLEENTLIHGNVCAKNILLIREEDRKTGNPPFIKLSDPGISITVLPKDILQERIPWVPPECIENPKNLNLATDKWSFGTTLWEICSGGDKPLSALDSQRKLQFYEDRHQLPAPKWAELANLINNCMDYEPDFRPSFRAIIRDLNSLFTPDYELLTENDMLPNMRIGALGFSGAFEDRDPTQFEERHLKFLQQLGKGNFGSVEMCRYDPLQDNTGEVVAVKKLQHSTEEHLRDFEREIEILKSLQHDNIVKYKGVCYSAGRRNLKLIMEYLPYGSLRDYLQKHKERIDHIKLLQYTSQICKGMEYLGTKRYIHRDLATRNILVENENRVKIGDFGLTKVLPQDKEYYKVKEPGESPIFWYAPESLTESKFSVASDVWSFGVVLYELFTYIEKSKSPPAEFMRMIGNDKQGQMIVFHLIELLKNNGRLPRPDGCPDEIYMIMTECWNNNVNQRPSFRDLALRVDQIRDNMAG
Sequence of Mitogen-activated protein kinase 8 (Homo sapiens) (P45983 whole entry): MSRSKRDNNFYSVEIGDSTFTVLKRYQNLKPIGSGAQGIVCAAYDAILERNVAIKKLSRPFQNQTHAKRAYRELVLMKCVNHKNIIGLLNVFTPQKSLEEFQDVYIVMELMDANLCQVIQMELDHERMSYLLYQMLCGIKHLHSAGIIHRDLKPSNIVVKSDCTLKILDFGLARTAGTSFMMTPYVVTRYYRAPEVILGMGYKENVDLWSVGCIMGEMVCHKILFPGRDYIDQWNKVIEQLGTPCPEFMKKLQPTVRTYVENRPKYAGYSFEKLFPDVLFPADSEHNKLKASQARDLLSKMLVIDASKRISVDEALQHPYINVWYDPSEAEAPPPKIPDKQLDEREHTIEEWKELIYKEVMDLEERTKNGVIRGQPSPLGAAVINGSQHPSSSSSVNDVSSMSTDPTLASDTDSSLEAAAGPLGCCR
Sequence of Tyrosine-protein kinase ABL1 (Homo sapiens) (P00519 whole entry): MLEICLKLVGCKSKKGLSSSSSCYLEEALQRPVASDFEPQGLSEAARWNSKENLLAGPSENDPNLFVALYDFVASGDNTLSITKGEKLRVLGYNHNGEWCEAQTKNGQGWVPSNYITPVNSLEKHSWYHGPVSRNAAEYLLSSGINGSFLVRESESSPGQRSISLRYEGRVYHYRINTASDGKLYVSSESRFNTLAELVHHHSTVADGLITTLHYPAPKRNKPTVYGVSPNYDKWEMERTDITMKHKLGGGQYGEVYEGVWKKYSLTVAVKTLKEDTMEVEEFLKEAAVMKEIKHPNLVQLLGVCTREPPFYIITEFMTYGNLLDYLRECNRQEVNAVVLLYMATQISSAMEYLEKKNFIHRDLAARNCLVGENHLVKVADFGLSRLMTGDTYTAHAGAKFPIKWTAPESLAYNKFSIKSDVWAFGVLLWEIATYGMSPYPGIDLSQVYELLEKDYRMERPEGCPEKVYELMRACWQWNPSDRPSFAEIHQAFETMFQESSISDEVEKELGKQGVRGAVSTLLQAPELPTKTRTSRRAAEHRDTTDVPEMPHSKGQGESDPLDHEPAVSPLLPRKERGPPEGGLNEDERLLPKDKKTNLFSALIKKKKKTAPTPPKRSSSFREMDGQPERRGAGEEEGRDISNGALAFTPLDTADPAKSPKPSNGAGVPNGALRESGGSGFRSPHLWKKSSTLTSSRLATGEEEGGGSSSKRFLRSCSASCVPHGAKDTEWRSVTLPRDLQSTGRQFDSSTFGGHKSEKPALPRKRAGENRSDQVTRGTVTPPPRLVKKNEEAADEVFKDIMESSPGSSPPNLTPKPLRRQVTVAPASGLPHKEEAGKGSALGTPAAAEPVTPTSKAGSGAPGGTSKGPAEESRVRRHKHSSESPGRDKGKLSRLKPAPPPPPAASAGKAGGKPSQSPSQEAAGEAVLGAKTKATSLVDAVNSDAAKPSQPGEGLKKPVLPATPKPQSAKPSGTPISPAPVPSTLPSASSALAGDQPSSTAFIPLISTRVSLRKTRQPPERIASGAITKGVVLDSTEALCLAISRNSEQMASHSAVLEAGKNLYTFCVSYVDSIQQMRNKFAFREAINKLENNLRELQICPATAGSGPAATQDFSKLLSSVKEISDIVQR
Sequence of Receptor-type tyrosine-protein kinase FLT3 (Homo sapiens) (P36888 whole entry): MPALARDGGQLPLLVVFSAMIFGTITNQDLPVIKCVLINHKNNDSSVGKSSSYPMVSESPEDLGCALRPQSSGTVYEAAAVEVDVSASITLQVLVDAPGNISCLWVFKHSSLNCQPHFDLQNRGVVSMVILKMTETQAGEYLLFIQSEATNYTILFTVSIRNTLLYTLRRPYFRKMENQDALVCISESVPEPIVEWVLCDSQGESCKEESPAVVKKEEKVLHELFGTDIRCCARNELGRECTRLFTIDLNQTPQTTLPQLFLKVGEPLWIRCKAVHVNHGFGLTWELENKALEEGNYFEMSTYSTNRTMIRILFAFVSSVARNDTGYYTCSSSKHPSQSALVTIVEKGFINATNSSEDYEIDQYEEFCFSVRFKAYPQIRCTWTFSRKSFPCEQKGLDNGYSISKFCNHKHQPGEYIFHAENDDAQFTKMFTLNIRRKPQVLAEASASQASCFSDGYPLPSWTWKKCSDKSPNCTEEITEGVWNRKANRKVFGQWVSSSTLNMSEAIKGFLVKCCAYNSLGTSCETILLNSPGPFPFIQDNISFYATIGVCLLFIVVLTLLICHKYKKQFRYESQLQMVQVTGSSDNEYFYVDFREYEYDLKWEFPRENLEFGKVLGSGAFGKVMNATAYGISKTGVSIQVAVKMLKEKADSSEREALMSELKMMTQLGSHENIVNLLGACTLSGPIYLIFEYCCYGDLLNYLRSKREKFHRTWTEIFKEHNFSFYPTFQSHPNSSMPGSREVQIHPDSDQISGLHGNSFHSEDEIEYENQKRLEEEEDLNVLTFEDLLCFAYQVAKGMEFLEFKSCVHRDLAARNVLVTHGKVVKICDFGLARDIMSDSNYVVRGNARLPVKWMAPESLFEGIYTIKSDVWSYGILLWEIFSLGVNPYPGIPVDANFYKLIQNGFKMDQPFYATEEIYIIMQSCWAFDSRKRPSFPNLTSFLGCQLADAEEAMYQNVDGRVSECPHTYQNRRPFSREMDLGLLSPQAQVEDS
Sequence of Serine/threonine-protein kinase PLK1 (Homo sapiens) (P53350 whole entry): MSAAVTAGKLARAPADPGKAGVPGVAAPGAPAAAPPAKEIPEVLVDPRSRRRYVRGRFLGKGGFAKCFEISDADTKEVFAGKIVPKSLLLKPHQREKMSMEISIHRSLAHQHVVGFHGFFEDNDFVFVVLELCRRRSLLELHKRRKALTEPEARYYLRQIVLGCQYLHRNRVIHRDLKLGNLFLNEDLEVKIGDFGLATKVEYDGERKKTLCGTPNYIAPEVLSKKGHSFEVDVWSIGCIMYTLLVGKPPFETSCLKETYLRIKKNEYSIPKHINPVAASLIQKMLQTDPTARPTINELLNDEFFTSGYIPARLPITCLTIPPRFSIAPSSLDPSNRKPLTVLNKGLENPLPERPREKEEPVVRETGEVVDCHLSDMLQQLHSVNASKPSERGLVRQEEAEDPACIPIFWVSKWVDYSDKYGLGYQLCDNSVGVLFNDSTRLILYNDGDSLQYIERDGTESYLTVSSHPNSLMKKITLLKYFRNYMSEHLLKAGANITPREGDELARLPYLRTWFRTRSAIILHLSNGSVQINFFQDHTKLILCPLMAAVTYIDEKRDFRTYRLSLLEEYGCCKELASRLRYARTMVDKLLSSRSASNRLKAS
Sequence of CDK6/cyclin D3 (P30281 whole entry): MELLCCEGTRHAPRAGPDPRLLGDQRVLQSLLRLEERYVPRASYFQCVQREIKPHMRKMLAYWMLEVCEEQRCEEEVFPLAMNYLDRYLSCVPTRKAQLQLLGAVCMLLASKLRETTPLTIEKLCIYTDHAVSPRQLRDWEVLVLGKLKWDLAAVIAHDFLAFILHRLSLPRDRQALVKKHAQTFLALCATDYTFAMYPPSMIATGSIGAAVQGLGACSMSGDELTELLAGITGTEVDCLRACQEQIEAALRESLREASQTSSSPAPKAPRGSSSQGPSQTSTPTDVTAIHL
Sequence of CDK6/cyclin D3 (Q00534 whole entry): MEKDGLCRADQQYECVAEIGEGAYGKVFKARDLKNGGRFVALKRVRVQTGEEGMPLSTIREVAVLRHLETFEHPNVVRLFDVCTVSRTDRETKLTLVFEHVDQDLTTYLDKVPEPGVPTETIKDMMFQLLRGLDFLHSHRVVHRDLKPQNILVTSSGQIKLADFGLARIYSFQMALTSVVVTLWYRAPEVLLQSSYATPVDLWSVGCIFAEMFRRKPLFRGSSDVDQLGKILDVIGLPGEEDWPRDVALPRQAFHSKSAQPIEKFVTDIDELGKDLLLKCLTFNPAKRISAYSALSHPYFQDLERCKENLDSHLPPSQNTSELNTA

For the molecule `CC(C)n1cnc2c(Nc3cccc(Cl)c3)nc(N[C@H]3CCCC[C@@H]3N)nc21`, the inhibition in [1] was 5%; in assay [3], -6%; in assay [4], 0%; in assay [6] it was 4%; in assay [7], 49%; in assay [8], 3%. The inhibition is 19% in assay [9], -2% in [10], -1% in assay [11] and 2% in assay [12]. Moreover, the IC50 in assay [2], in [13] and in assay [14] was greater than 1 µM each time. In addition, the EC50 in assay [5] was determined as 11.7 µM.
`CC(C)n1cnc2c(Nc3cc(N)cc(Cl)c3)nc(N[C@@H]3CCCC[C@@H]3N)nc21` (racemic): the inhibition was 4% in assay [1]; 8% in assay [3]; 0% in assay [4]; 13% in assay [6]; 60% in assay [7]; -6% in [8]. Moreover, the inhibition in assay [9] stood at 93%; in assay [10], 8%; in assay [11], 9%; in [12] it was 1%.
On to `CC(C)n1cnc2c(Nc3cccc(Cl)c3)nc(N[C@@H]3CCCC[C@@H]3N)nc21`, for which the inhibition is 4% in [1]; 2% in [3]; 4% in [4]; -5% in assay [6]; 9% in assay [7]; -1% in assay [8]. Also, the inhibition in [9] came out at 90%; in assay [10], 2%; in assay [12] it was 5%. Moreover, the IC50 was greater than 1 µM in assay [2], 0.674 µM in assay [13] and 0.541 µM in assay [14]. The EC50 in assay [5] turned out to be 4.3 µM.
